Results: patent publication US20110207729A1, “BICYCLIC ACYLGUANIDINE DERIVATIVE” (ASTELLAS PHARMA INC., priority 2007, published 2011)
Structures can show the parent of a compound that is named as a salt.

Biological target: T1, human 5-HT5A receptor (Homo sapiens, UniProt P47898)
T1 construct: expressed in transfected cells; membrane preparation
Assay: Test on a human 5-HT5A receptor binding inhibition ([3H]5-CT)
Conditions: membrane from HEK293 cells expressing human 5-HT5A receptor; Ki calculated from IC50 and Kd 4.95 nM
Protocol: Acquisition of HEK293 cells for forced expressions of a human 5-HT5A receptor
The ORF (open reading frame; protein coding region) of a human 5-HT5A receptor (Genbank AF498985) was cloned from a human hippocampus cDNA library, and then inserted into a pCR2.1 vector (Invitrogen), and Escherichia coli containing the plasmid was cultured in a large amount. Next, the full-length cDNA sequence of the human 5-HT5A receptor was analyzed, and recombined into a pcDNA3.1 vector (Invitrogen) as an expression vector and cultured in a large amount. HEK293 established cells (ATCC) derived from the human fetal kidney were seeded, the expression plasmid (1 μg) obtained above were added thereto with LIPOFECTAMINE 2000 (Invitrogen; 2 μl), the gene was transfected into HEK293 cells, and the expression cells were screened with a drug-resistant marker, Geneticin (G418 sulfate 500 μg/ml; Kanto Chemical Co., Inc.). Thus prepared recombinant cells which express the gene were cultured in a medium containing D-MEM (Dulbecco's modified eagle medium, Sigma), 10% FCS (Fetal calf serum: fetal bovine serum), 1% Pc./Sm (Penicillin/Streptomycin, Invitrogen), and 500 μg/ml G418 for 3 days. These experimental operations follow an manual for gene operation experiment and an instruction appended in a reagent, and the like, such as a known method (Sambrook, J. et al, Molecular Cloning—A Laboratory Manual”, Cold Spring Harabor laboratory, NY, 1989).
(1) Preparation of a Membrane from HEK293 Cells for Forced Expressions of a Human 5-HT5A Receptor
HEK293 cells for forced expressions of a human 5-HT5A receptor were cultured in a F500 plate, and scraped with a scraper. After centrifugation, a precipitate was collected, and an incubation buffer (50 mM Tris (HCl) (pH 7.4), 10 mM MgSO4, and 0.5 mM EDTA (ethylenediamine tetraacetic acid)) were added thereto. After homogenization, it was further centrifuged, and the precipitate was added with the incubation buffer, followed by thoroughly suspending. This operation was repeated, and a protein concentration was measured, thereby completing the preparation of a membrane.
(2) Test on a Human 5-HT5A Receptor Binding Inhibition
A solution of a compound to be tested and 100 μM 5-CT (5-carboxamidetriptamine) in DMSO was added to a 96-well plate at 2 μl/well, and suspended in an incubation buffer, and a membrane from HEK293 cells for forced expressions of a human 5-HT5A receptor prepared at 200 μg/ml was added at 100 μl/well. After incubation at room temperature for 15 minutes, a [^3H]5-CT solution (2 nM [^3H]5-CT, incubation buffer) was added thereto at 100 μl/well.
Separately, 100 μl of the solution was distributed into a liquid scintillation vial, and 2 ml of Aquasol II (registered trademark) was added thereto, followed by stirring. Then, a radioactivity was measured by a liquid scintillation counter. It was incubated at 37° C. for 60 minutes. The reaction mixture was sucked into 96-well GF/C filter plate that had been pre-treated with 0.2% polyethyleneimine, and washed six times with an ice-cooled, 50 mM Tris (pH 7.5) buffer. The GF/C filter plate was dried.
Microscint TMPS (registered trademark) was added thereto at 40 μl/well. A radioactivity remaining on the GF/C filter plate was measured by a top counter.
The [^3H]5-CT binding inhibiting activity by the compound to be tested in each experiment was determined as an IC50 value with a radioactivity upon addition of DMSO alone being 0% inhibition, and a radioactivity upon addition of 1 μM 5-CT being 100% inhibition. Separately, a Ki value was calculated from the Kd value of the [^3H]5-CT determined from Scatchard analysis, by the following equation.
Ki=IC50(1+Concentration of ligands added/Kd(4.95 nM))

T1 sequence (P47898 whole entry): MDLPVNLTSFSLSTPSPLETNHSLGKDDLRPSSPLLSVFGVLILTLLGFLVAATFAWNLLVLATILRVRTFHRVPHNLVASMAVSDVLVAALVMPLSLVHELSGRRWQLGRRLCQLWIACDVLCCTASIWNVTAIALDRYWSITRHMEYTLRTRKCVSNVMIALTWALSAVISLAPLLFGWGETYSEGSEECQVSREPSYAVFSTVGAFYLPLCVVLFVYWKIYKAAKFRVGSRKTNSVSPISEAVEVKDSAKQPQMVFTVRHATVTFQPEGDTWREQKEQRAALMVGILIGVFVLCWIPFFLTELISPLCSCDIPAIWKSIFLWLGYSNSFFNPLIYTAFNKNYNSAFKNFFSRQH

| Ki [nM] | Compound |
| --- | --- |
| 3 to 30 | NC(N)=NC(=O)c1ccc2c(c1)C(c1cccnc1Cl)=CCC2 [Example 2-176] |
| 3 to 30 | NC(N)=NC(=O)c1ccc2c(c1)C(c1cccc([N+](=O)[O-])c1)=CCC2 [Example 2-47] |
| 3 to 30 | CC1C=C(c2cccs2)c2cc(C(=O)N=C(N)N)ccc2O1 (stereo not drawn) [Example 1-166] |
| 30 to 300 | NC(N)=NC(=O)c1ccc2c(c1)C(c1ccc(C(F)(F)F)nc1)=CCC2 [Example 2-142] |
| 0.3 to 3 | NC(N)=NC(=O)c1ccc2scc(-c3ccccc3F)c2c1 [Example 3-26] |
| 30 to 300 | CC(C)Oc1ccccc1C1=CCCc2ccc(C(=O)N=C(N)N)cc21 [Example 2-45] |
| 3 to 30 | NC(N)=NC(=O)c1ccc2c(c1)C(c1cccc(F)c1)=CCC2 [Example 2-08] |
| 3 to 30 | NC(N)=NC(=O)c1ccc2c(c1)C(c1ccccc1C(F)(F)F)=CCO2 [Example 1-15] |
| 0.3 to 3 | NC(N)=NC(=O)c1ccc2c(c1)C(c1ccc(Cl)cc1Cl)=CCO2 [Example 1-51] |
| 3 to 30 | COc1cccc(C2=CCCc3ccc(C(=O)N=C(N)N)cc32)c1 [Example 2-05] |
| 0.3 to 3 | NC(N)=NC(=O)c1ccc2c(c1)C(c1c(F)cc(F)cc1F)=CCCO2 [Example 3-12] |
| 30 to 300 | CC1C=C(c2ccc(Cl)nc2Cl)c2cc(C(=O)N=C(N)N)ccc2O1 (stereo not drawn) [Example 1-147] |
| 0.3 to 3 | COc1cc(F)c(C2=C(C)CCc3ccc(C(=O)N=C(N)N)cc32)c(F)c1 [Example 2-178] |
| 0.3 to 3 | NC(N)=NC(=O)c1ccc2c(c1)C(c1ccc(F)cc1Cl)=CCC2 [Example 2-70] |
| 3 to 30 | NC(N)=NC(=O)c1ccc2c(c1)C(c1ccc(F)nc1)=CCC2 [Example 2-53] |
| 30 to 300 | NC(N)=NC(=O)c1ccc2c(c1)C(c1ccccn1)=CCC2 [Example 2-89] |
| 30 to 300 | NC(N)=NC(=O)c1ccc2c(c1)C(c1ccccc1CO)=CCC2 [Example 2-35] |
| 3 to 30 | NC(N)=NC(=O)c1ccc2c(c1)C(c1ccccc1)CCC2 (stereo not drawn) [Example 3-02] |
| 3 to 30 | COc1cc(F)c(F)cc1C1=CCCc2ccc(C(=O)N=C(N)N)cc21 [Example 2-100] |
| 0.3 to 3 | NC(N)=NC(=O)c1ccc2c(c1)C(c1ccc(Cl)cc1F)=CCO2 [Example 1-54] |
| 30 to 300 | CCOc1ccccc1C1=CCCc2ccc(C(=O)N=C(N)N)cc21 [Example 2-44] |
| 0.3 to 3 | Cc1cc(Cl)ccc1C1=CCCc2ccc(C(=O)N=C(N)N)cc21 [Example 2-135] |

| Ki [nM] | Compound |
| --- | --- |
| 0.3 to 3 | NC(N)=NC(=O)c1ccc2c(c1)C(c1c(F)cccc1F)=CCC2 [Example 2-105] |
| 3 to 30 | COc1ccccc1C1=CCCOc2ccc(C(=O)N=C(N)N)cc21 [Example 3-11] |
| 0.3 to 3 | NC(N)=NC(=O)c1ccc2c(c1)C(c1ccc(F)c(F)c1F)=CCC2 [Example 2-95] |
| 30 to 300 | N#Cc1cc(C2=CCOc3ccc(C(=O)N=C(N)N)cc32)ccc1F [Example 1-49] |
| 3 to 30 | NC(N)=NC(=O)c1ccc2c(c1)C(c1cc(Cl)c(F)cc1F)=CCC2 [Example 2-136] |
| 30 to 300 | NC(=O)c1cccc(C2=CCCc3ccc(C(=O)N=C(N)N)cc32)c1 [Example 2-30] |
| 3 to 30 | COc1ccc(C#N)cc1C1=CCCc2ccc(C(=O)N=C(N)N)cc21 [Example 2-61] |
| 3 to 30 | NC(N)=NC(=O)c1ccc2c(c1)C(c1ccoc1)=CCC2 [Example 2-01, N-(diaminomethylene)-8-(3-furyl)-5,6-dihydronaphthalene-2-carboxamide methane sulfonate] |
| 0.3 to 3 | CC1=C(c2ccc(F)cc2C)c2cc(C(=O)N=C(N)N)ccc2CC1 [Example 2-163] |
| 3 to 30 | CCC1=C(c2ccccc2)c2cc(C(=O)N=C(N)N)ccc2CC1 [Example 2-115] |
| 30 to 300 | CC1(C)C=C(c2ccc(F)cc2)c2cc(C(=O)N=C(N)N)ccc2O1 [Example 1-110] |
| 30 to 300 | N#Cc1ccc(F)cc1C1=CCCc2ccc(C(=O)N=C(N)N)cc21 [Example 2-175] |
| 0.3 to 3 | CC1=C(c2ccc(C)cc2C)c2cc(C(=O)N=C(N)N)ccc2CC1 [Example 2-164] |
| 0.3 to 3 | NC(N)=NC(=O)c1ccc2c(c1)C(c1ccccc1O)=CCO2 [Example 1-22] |
| 30 to 300 | NC(N)=NC(=O)c1ccc2c(c1)C(c1ccccc1)=CCCC2 [Example 3-03] |
| 3 to 30 | N#Cc1ccccc1-c1csc2ccc(C(=O)N=C(N)N)cc12 [Example 3-38] |
| 3 to 30 | NC(N)=NC(=O)c1ccc2c(c1)C(c1cccc(Cl)c1)=CCC2 [Example 2-10] |
| 3 to 30 | CC1C=C(c2c(F)cccc2F)c2cc(C(=O)N=C(N)N)ccc2O1 (stereo not drawn) [Example 1-126] |
| 0.3 to 3 | COc1cc2c(cc1C(=O)N=C(N)N)C(c1c(F)cc(F)cc1F)=CCO2 [Example 1-118] |
| 30 to 300 | NC(N)=NC(=O)c1ccc2occ(-c3ccccc3)c2c1 [Example 3-09] |
| 0.3 to 3 | NC(N)=NC(=O)c1ccc2c(c1)C(c1ccc(F)cc1)=C(F)CC2 [Example 2-96] |
| 0.3 to 3 | COc1ccccc1-c1c(C)sc2ccc(C(=O)N=C(N)N)cc12 [Example 3-33] |

| Ki [nM] | Compound |
| --- | --- |
| 0.3 to 3 | NC(N)=NC(=O)c1ccc2c(c1)C(c1c(F)cc(F)cc1F)=CCC2 [Example 2-60] |
| 0.3 to 3 | NC(N)=NC(=O)c1ccc2c(c1)C(c1cccc(O)c1)=CCC2 [Example 2-51] |
| 3 to 30 | NC(N)=NC(=O)c1ccc2c(c1)C(c1cc(C(F)(F)F)ccc1F)=CCO2 [Example 1-65] |
| 30 to 300 | CC1(C)C=C(c2ccc(F)c(F)c2F)c2cc(C(=O)N=C(N)N)ccc2O1 [Example 1-119] |
| 0.3 to 3 | NC(N)=NC(=O)c1ccc2c(c1)C(c1ccc([N+](=O)[O-])cc1)=CCC2 [Example 2-48] |
| 30 to 300 | N#Cc1cc(C2=CCCc3ccc(C(=O)N=C(N)N)cc32)ccc1F [Example 2-62] |
| 0.3 to 3 | NC(N)=NC(=O)c1ccc2c(c1)C(c1cc(F)ccc1Cl)=CCO2 [Example 1-103] |
| 0.3 to 3 | COc1ccccc1-c1csc2ccc(C(=O)N=C(N)N)cc12 [Example 3-08] |
| 3 to 30 | CCOc1ccc(C2=CCCc3ccc(C(=O)N=C(N)N)cc32)cc1 [Example 2-87] |
| 30 to 300 | NC(N)=NC(=O)c1ccc2c(c1)C(c1cccc3c1OCCO3)=CCC2 [Example 2-189] |
| 3 to 30 | NC(N)=NC(=O)c1ccc2c(c1)C(C1CCOCC1)=CCC2 [Example 2-31] |
| 3 to 30 | Cc1ccc(C2=CCCc3ccc(C(=O)N=C(N)N)cc32)c(C#N)c1 [Example 2-79] |
| 0.3 to 3 | CC1=C(c2c(F)cc(F)cc2F)c2cc(C(=O)N=C(N)N)ccc2OC1 [Example 1-67] |
| 0.3 to 3 | CC1C=C(c2c(F)cc(F)cc2F)c2cc(C(=O)N=C(N)N)ccc2O1 (stereo not drawn) [Example 1-71] |
| 3 to 30 | NC(N)=NC(=O)c1ccc2c(c1)C(c1ccccc1O)=CCC2 [Example 2-50] |
| 3 to 30 | COc1ccc(C2=CCCc3ccc(C(=O)N=C(N)N)cc32)c(OC)n1 [Example 2-173] |
| 30 to 300 | CC1C=C(c2ccc(F)c(F)c2)c2cc(C(=O)N=C(N)N)ccc2O1 (stereo not drawn) [Example 1-146] |
| 3 to 30 | NC(N)=NC(=O)c1ccc2c(c1)C(c1cccc(CO)c1)=CCC2 [Example 2-34] |
| 30 to 300 | CN(C)Cc1ccccc1C1=CCCc2ccc(C(=O)N=C(N)N)cc21 [Example 2-36] |
| 3 to 30 | Cc1ccc(C2=CCSc3ccc(C(=O)N=C(N)N)cc32)c(F)c1 [Example 3-15] |
| 3 to 30 | CC1=C(c2ccc(C)nc2)c2cc(C(=O)N=C(N)N)ccc2CC1 [Example 2-141] |
| 30 to 300 | NC(N)=NC(=O)c1ccc2c(c1)C(N1CCNCC1)CCC2 (stereo not drawn) [Example 3-01, N-(diaminomethylene)-8-piperazin-1-yl-5,6,7,8-tetrahydronaphthalene-2-carboxamide trihydrochloride] |
